The record followed here is PubChem BioAssay (NCI).

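48-hour exposure; five concentrations; linearly interpolated endpoints. TGI denotes the concentration required for complete inhibition of growth.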

Assay in all cases: growth of human tumour cells (NCI), 48 h
Test [1] concerns COLO 205 colon.
Test [2] concerns HOP-18 NSCLC.
Test [3] concerns DLD-1 colon.
Test [4] relates to KM20L2 colon.
For test [5], the system named is LXFL 529 NSCLC.
The test system of test [6] is M19-MEL melanoma.
The test system of test [7] is SNB-78 CNS.
The test system of test [8] is RXF-631 renal.
In test [9] the test system is DMS 273 small cell lung.
The subject of test [10] is DMS 114 small cell lung.
Test [11] has as its system XF 498 CNS.

For the compound `CSc1ccc(C2C(Cl)C(=O)N2NC(=O)c2c(Cl)c(Cl)c(Cl)c(Cl)c2-c2nc3ccccc3[nH]2)cc1` (stereo unspecified), the TGI in test [1] was 40.6 µM.
On the same count and under the same terms, the figure for `S=C(/N=c1/sc(Nc2ccccc2)nc2sc3c(c12)CCCC3)Nc1ccccc1` is greater than 62.5 µM; for `O=C(Nc1ccc2nc(-c3ccccc3)cn2c1)Oc1ccccc1` it is greater than 100 µM.
On the same count and under the same terms, the figure for `c1ccc2c(c1)nc1n2CNCC1` is greater than 100 µM; for `O=C1NNC(=O)C2C3c4ccccc4C(c4ccccc43)C12` (stereo unspecified) it is greater than 100 µM.
With `O=C1CCC(c2ccccc2)C(O)(C(=O)O)C1` (stereo unspecified), the TGI in [2], in test [3], in test [4], in test [5], in test [6] and in [7] was greater than 100 µM in each case. Besides, the TGI in test [8], in [1] and in test [9] was greater than 100 µM each time.
In test [1], `CO/N=C(\C(=O)Nc1cncs1)c1csc(NC(c2ccccc2)(c2ccccc2)c2ccccc2)n1` gave a TGI greater than 10 µM.
Still for that read-out and setting: under `COC(=O)CCC(=O)NC1c2cccc3cccc(c23)Cn2c(=O)n(C)c(=O)n21` (stereo unspecified) stands greater than 100 µM.
On the same count and under the same terms, under `Brc1ccc2c(-c3nc(-c4c[nH]c5ccc(Br)cc45)cs3)c[nH]c2c1` stands 7.06 µM.
`Cc1cc(=O)[nH]c(NNC(C#N)c2ccc(O)cc2)n1` (stereo unspecified): the TGI in test [2], in test [3], in test [4], in test [5], in [6] and in [7] was greater than 100 µM each time. Further, the TGI in test [1], in [10] and in test [9] was greater than 100 µM each time.
Consider `NC(N)=N/N=C/c1c(Cl)nc2sccn12`, for which the TGI in [1] amounted to 33.5 µM.
On to `CCCN=C(NC(=O)c1ccc(Cl)cc1)SC`, for which the TGI in [1] was greater than 100 µM.
Same read-out and setting: the figure for `Cc1ccc2nc3ccccc3c(C3C4C(=O)N(c5ccc(Br)cc5Cl)C(=O)C4ON3C(C(N)=O)c3ccccc3)c2c1` (stereo unspecified) is greater than 25 µM; for `CCOC(=O)NC(Nc1ccc(S(=O)(=O)Nc2ncccn2)cc1)(C(=O)OCC)C(F)(F)F` (stereo unspecified) it is greater than 100 µM.
Same read-out and setting: the figure for `COc1ccc2c(c1)OCc1c-2oc2ccccc2c1=O` is greater than 100 µM.
In test [1], `O=P(c1ccccc1)(c1ccccc1)C(NCc1ccccc1)c1ccc(F)cc1` (stereo unspecified) registered a TGI of 29.7 µM.
Turning to `CC1=CC(=O)NCCN1C`, the TGI in [2], in test [3], in test [4], in test [5], in [6] and in test [7] was greater than 100 µM each time. Besides, the TGI in test [11], in [1], in test [10] and in [9] was greater than 100 µM in each case.
`Cc1nnc([C@@]2(C)CC[C@H]3[C@@H](CC=C4C[C@@H](O)CC[C@@]43C)[C@@H]2CC#N)o1`: the TGI in test [1] is greater than 100 µM.
The same measure, in the same setting: under `CC[C@@H]1/C=C/C=C/C[C@H](C)[C@@H](O)[C@](C)(O)C(=O)[C@H](C)[C@@H](O)[C@H](C)C(=O)[C@H](C)[C@@H](O)[C@H](C)/C=C/C(=O)O[C@H]2[C@@H](C)[C@@H](CC1)O[C@]1(O[C@H](CC(C)O)[C@H](C)CC1=O)[C@@H]2C` (stereo partly specified) stands 5.07 µM; under `CNC(=O)N1CCN(C(=O)NC)CCN(C(=O)NC)CC1`, greater than 100 µM; under `CC1CN=C(Nc2ccc(S(N)(=O)=O)cc2)S1` (stereo unspecified), greater than 100 µM.
The same measure, in the same setting: under `C=C(C)[C@@H](C(=O)OC)N1C(=O)c2ccccc2C1=O` stands greater than 100 µM; under `CC/C(=N/O)c1ccc(Br)s1`, greater than 100 µM.
Take `CCCN(CCCCC(NC(C)=O)C(=O)NCc1ccccc1)C(=O)N(CCCl)N=O` (stereo unspecified): the TGI in test [2], in test [3], in [4], in test [5], in test [6] and in test [7] was greater than 100 µM throughout. Moreover, the TGI in test [11], in [8], in test [1], in [10] and in test [9] was greater than 100 µM throughout.
In turn, `CCOC(=O)C(Cl)(NC(=O)c1ccc(F)cc1)C(F)(F)F` (stereo unspecified) yielded a TGI in test [1] greater than 100 µM.
In turn, `O=C(CNc1ccc(Cl)cc1)Nn1c(-c2ccccc2)nc2ccccc2c1=O` displayed a TGI in test [1] of 18.6 µM.
On the same count and under the same terms, under `CN(C)CC(CN(C)C)c1ccccn1` stands greater than 100 µM.
For the compound `CCOC(=O)CC(NC(=O)c1nc[nH]c1[N+](=O)[O-])C(=O)OCC` (stereo unspecified), the TGI in test [3], in [5], in test [6], in [1], in [10] and in test [9] was greater than 100 µM each time.
Compound `C[N+](C)(N)CCC[N+](C)(C)N` yielded a TGI in test [1] greater than 100 µM.
Take `Cn1c(=O)c2c(nc(NCCCCl)n2CC(=O)NCCCCl)n(C)c1=O`: the TGI in [1] was greater than 100 µM.
The same measure, in the same setting: under `O=C1C(Br)=CC2(C=C1Br)CCN=c1c(O)c3c(c(O)c12)=NC=N3` stands 37.6 µM.
